Results reported in patent publication US4430355A, “Condensed isothiazolo-3 (2H)-one-1-1-dioxides” (priority 1977, dated 1984).
Where two headings read alike, the source gives them in different places.

What was measured:
[1] = value given on page 6 of German Offenlegungsschrift 2,534,689; cited from earlier work
[2] = Determination of the threshold concentration (taste testers, Schutz and Pilgrim method); set-up: key: mean of 5 testers; 0 = not sweet, 3 = very sweet
Method: From novel compounds A, B, C, D, E and F and from known comparison compounds U, V and W aqueous solutions in concentrations of 1:12500, 1:25000, 1:50000, 1:100000 and 1:200000 were prepared and evaluated by each of 5 taste testers according to the following criteria: Very sweet (=3 points); medium sweet (=2 points), slightly sweet (=1 point) and not sweet (=0 point). The tests were carried out according to the method of H. G. Schutz and F. J. Pilgrim [Food Research 22, 206 (1957)]. The dilution with perceptible sweetness was defined as the concentration at which the average value reached the evaluation points 1.0 or higher.

[3] = Determination of the relative sweetening power in comparison to saccharose (taste testers, 3% saccharose solution)
Source text: The relative sweetening power (often also defined as degree of sweetness) of sweetening agents in comparison to saccharose (cane sugar) varies with the concentrations within wide limits. Thus, in the usual concentrations (corresponding to a 2-10% solution of saccharose) the relative sweetening power of saccharin varies from 200 to 700. Therefore, for the determination of the relative sweetening power of the above-mentioned compounds a 3% aqueous solution of saccharose was always used for comparison.
The further determination of the relative sweetening power was continued according to the methods of R. Pauli [Chemiker Zeitung 44, 744 (1920)] and T. Paul [Chemiker-Zeitung 45 38 (1921)]. Each test series was tested by 4 taste testers.

[4] = tested on: mouse; assay: Orienting acute toxicity, oral, mouse; format: in vivo; settings: 6 animals
Method: The acute toxicity was determined after oral administration to male and female mice and to male and female rats. The substances were given in an aqueous solution or as a suspension in tylose.

[5] = Evaluation of taste quality
Source text: They often have a side-taste or after-taste. Novel compounds A to F are, however, characterized by a very pure sweet taste.

[6] = tested on: Salmonella typhimurium TA 98, TA 100, TA 1535, TA 1537, TA 1538; assay: AMES-system, test for mutagenic effects, Salmonella typhimurium; format: cell-based
Method: Compounds C and D were tested in the AMES-system [Mutation Research 31, 347-364 (1975)] with regard to their mutagenic properties. In order to show the whole spectrum of induced molecular DNA-damages (base substitutions, frame-shift mutations, deletions) the auxotrophic bacterial strains Salmonella typhimurium TA 98, TA 100 and Escherichia coli WP 2 (P) were used as genetic indicators. The strains Salmonella typhimurium TA 1535, TA 1537 and TA 1538 were additionally used in the test of compound C.
(§1) The test for all microorganisms were carried out in a way such that the influence of a microsomal enzyme system, together with the corresponding co-factors, could be tested with regard to the test substance, and to determine the differences in enzyme induction. The tests were performed without an activating system and in the presence of an activating system. For the in vitro-activation, S-9 supernatants (fraction of the endoplasmatic reticulum) of normal, i.e. not pre-treated rats and of Aroclor 1254 (500 mg/kg) induced rats were used. From the S-9 induced fraction, 3 different concentration levels were tested.
(§2) The substance concentrations of compound C were 0.1 and 0.5 mgm/plate and the concentrations of compound D were 5, 10, 15 and 20 mg/plate.

[7] = tested on: Escherichia coli WP 2 (P); assay: AMES-system, test for mutagenic effects, Escherichia coli; format: cell-based
Method: In order to show the whole spectrum of induced molecular DNA-damages (base substitutions, frame-shift mutations, deletions) the auxotrophic bacterial strains Salmonella typhimurium TA 98, TA 100 and Escherichia coli WP 2 (P) were used as genetic indicators.
as §1, with “For the in vitro-activation, S-9 supernatants (fraction of the endoplasmatic reticulum) of normal, i.e. not pre-treated rats and of Aroclor 1254 (500 mg/kg) induced rats were used.” left out

[8] = tested on: microorganism growth; assay: Series dilution essay, inhibition of the microorganism growth; format: cell-based; settings: highest dosages (C 0.5 mgm/plate, D 20 mg/plate)
Method: as §2

[9] = higher dosage levels; cited from earlier work
[10] = compared with 3% aqueous solution of saccharose

## O=C1NS(=O)(=O)c2sccc21 [X, Thieno[3,2-d]isothiazole-3(2H)-one-1,1-dioxide]
[1]
  Relative Sweetening Power (Saccharose = 1): 350

## Cc1sc2c(c1C)C(=O)NS2(=O)=O.[Na] [F, 4,5-Dimethyl-thieno[3,2-d]isothiazole-3(2H)-one-1,1-dioxide sodium salt]
[2]; concentration 1:50000
  Average Value of Evaluation Points: 2.0
[2]; concentration 1:100000
  Average Value of Evaluation Points: 1.4
[2]; concentration 1:200000
  Average Value of Evaluation Points: 0.2
[3]; [10]
  Relative Sweetening Power (Saccharose = 1): 1000

## Cc1sc2c(c1C)C(=O)NS2(=O)=O [E, 4,5-Dimethyl-thieno[3,2-d]isothiazole-3(2H)-one-1,1-dioxide]
[2]; concentration 1:50000
  Average Value of Evaluation Points: 2.2
[2]; concentration 1:100000
  Average Value of Evaluation Points: 1.6
[2]; concentration 1:200000
  Average Value of Evaluation Points: 0.4
[3]; [10]
  Relative Sweetening Power (Saccharose = 1): 1050
[4]; 1000 mgm/kg oral
  Animals which died within the observation time, 1 day: 0 animals
  Animals which died within the observation time, 7 days: 0 animals

## Cc1cc2c(s1)S(=O)(=O)NC2=O [B, 5-Methyl-thieno[3,2-d]isothiazole-3(2H)-one-1,1-dioxide]
[2]; concentration 1:25000
  Average Value of Evaluation Points: 2.2
[2]; concentration 1:50000
  Average Value of Evaluation Points: 1.4
[2]; concentration 1:100000
  Average Value of Evaluation Points: 0.2
[3]; [10]
  Relative Sweetening Power (Saccharose = 1): 550
[4]; 5000 mgm/kg oral
  Animals which died within the observation time, 1 day: 0 animals
  Animals which died within the observation time, 7 days: 0 animals

## O=C1NS(=O)(=O)c2ccccc21.[Na] [W, Saccharin sodium, reference compound]
[2]; concentration 1:25000
  Average Value of Evaluation Points: 2.2
[2]; concentration 1:50000
  Average Value of Evaluation Points: 1.2
[2]; concentration 1:100000
  Average Value of Evaluation Points: 0.0
[3]; [10]
  Relative Sweetening Power (Saccharose = 1): 550

## Cc1cc2c(o1)S(=O)(=O)NC2=O [A, 5-Methyl-furo[3,2-d]isothiazole-3-(2H)-one-1,1-dioxide]
[2]; concentration 1:12500
  Average Value of Evaluation Points: 1.4
[2]; concentration 1:25000
  Average Value of Evaluation Points: 0.2
[3]; [10]
  Relative Sweetening Power (Saccharose = 1): 150
[5]
  taste quality compared with saccharose (cane sugar): achieve the taste quality of saccharose
[4]; 1000 mgm/kg oral
  Animals which died within the observation time, 1 day: 0 animals
  Animals which died within the observation time, 7 days: 0 animals

## Cc1cc2c(s1)S(=O)(=O)NC2=O.[Ca] [D, 5-Methyl-thieno[3,2-d]isothiazole-3(2H)-one-1,1-dioxide calcium salt]
[2]; concentration 1:25000
  Average Value of Evaluation Points: 1.8
[2]; concentration 1:50000
  Average Value of Evaluation Points: 1.0
[2]; concentration 1:100000
  Average Value of Evaluation Points: 0.0
[3]; [10]
  Relative Sweetening Power (Saccharose = 1): 500
[4]; 5000 mgm/kg oral
  Animals which died within the observation time, 1 day: 0 animals
  Animals which died within the observation time, 7 days: 0 animals
[6]; S. typhimurium TA 1535, TA 100
  release of base substitutions: do not release base substitutions
[6]; S. typhimurium TA 1537, TA 1538, TA 98
  release of frame-shift mutations: do not release
[6]; Salmonella strains, C 0.1 and 0.5 mgm/plate, D 5-20 mg/plate, with and without activating system
  increase in the spontaneous mutation rate: did not lead to an increase
[6]; all test strains
  colonies counted on the substance plates: within the spontaneous range
[6]; all tested strains, S-9 of normal and Aroclor 1254 induced rats
  effect of the enzyme induction and of the activating fraction on the reverse mutation rate: not detectable
[6]; conclusion over all tested strains
  mutagenic potential: do not indicate a mutagenic potential
[7]; E. coli WP2 (P)
  release of base substitutions: do not release base substitutions
[7]; E. coli WP 2 (P), C 0.1 and 0.5 mgm/plate, D 5-20 mg/plate, with and without activating system
  increase in the spontaneous mutation rate: did not lead to an increase
[8]
  inhibition of the microorganism growth: did not show any inhibition

## O=S(=O)(O)NC1CCCCC1 [U, Cyclamate, reference compound]
[2]; concentration 1:12500
  Average Value of Evaluation Points: 0.4
[3]
  Relative Sweetening Power (Saccharose = 1): 60
[9]
  safety as sweetening agent: not entirely safe
